{"source": "a melting point compilation (Tetko et al.)", "data": [{"units": {"melting point": "°C"}, "values": [{"smiles": "O=C1NS(=O)(=O)c2ncccc21", "melting point": "199 to 201"}, {"smiles": "COc1cc(C=O)cc(O)c1O", "melting point": "131 to 134"}, {"smiles": "O=C(O)C1CCN(C(=O)CCOc2ccccc2)CC1", "melting point": "127 to 129"}, {"smiles": "O=Cc1cc(-c2cccs2)cs1", "melting point": "107 to 109"}, {"smiles": "CCOC(=O)C(=O)Nc1ccc(C)cc1", "melting point": "64 to 66"}, {"smiles": "Cc1ccc(S(=O)(=O)N2CCOCC2)cc1C(=O)O", "melting point": "148 to 152"}, {"smiles": "O=C(CNCc1ccc(Cl)cc1)Nc1ccccc1F", "melting point": "90 to 92"}, {"smiles": "CCOC(=O)NC(=S)Nc1nccs1", "melting point": "169 to 171"}, {"smiles": "O=C(CC(F)(F)F)c1ccc(Cl)cc1", "melting point": "39 to 41"}, {"smiles": "COc1ccnc(N2CCNCC2)c1", "melting point": "36 to 38"}, {"smiles": "COC(=O)CS(N)(=O)=O", "melting point": "57 to 59"}, {"smiles": "CC(C#N)NC(=O)OC(C)(C)C", "note": "(configuration not stated)", "melting point": "94 to 96"}, {"smiles": "Cc1nnc(Cl)n1-c1ccccc1", "melting point": "252 to 254"}, {"smiles": "Cc1ccc2[nH]c(C(=O)O)c(Cl)c2c1", "melting point": "191 to 193"}, {"smiles": "COC(=O)c1nonc1N", "melting point": "115 to 117"}, {"smiles": "O=C1CNC(=O)c2sccc2N1", "melting point": "239 to 241"}, {"smiles": "O=C(O)CN(Cc1cccnc1)c1ccccc1", "melting point": "136 to 138"}, {"smiles": "Nc1ccnn1Cc1cccc2ccccc12", "melting point": "136 to 140"}, {"smiles": "CS(=O)(=O)N1CCCc2cc(C(=O)O)ccc21", "melting point": "218 to 220"}, {"smiles": "CC(C1CC1)n1ncc2c(C(=O)O)cc(C3CC3)nc21", "note": "(configuration not stated)", "melting point": "148 to 150"}, {"smiles": "Cn1cc(C#N)c(=O)[nH]c1=O", "melting point": "239 to 241"}, {"smiles": "COc1cc(OC)cc(Oc2ccc(C=O)cc2)c1", "melting point": "57 to 59"}, {"smiles": "O=C(CCl)NCCc1ccc2c(c1)OCCO2", "melting point": "72 to 76"}, {"smiles": "Fc1ccccc1-c1nnc(S)n1Cc1ccccc1", "melting point": "90 to 92"}, {"smiles": "Cc1cccc(Oc2ncccc2N)c1C", "melting point": "147 to 149"}, {"smiles": "c1cc(-c2ccn[nH]2)ccn1", "melting point": "154 to 156"}, {"smiles": "CCOC(=O)c1cc2c(nc1N)CCN(C)C2", "melting point": "146 to 148"}, {"smiles": "NC(=O)N1CC=C(c2ccc(O)cc2)CC1", "melting point": "244 to 246"}, {"smiles": "Cc1cc(C)n(-c2ccc(CC#N)cc2)n1", "melting point": "45 to 55"}, {"smiles": "CS(=O)(=O)c1ccc(OCCCCC(=O)O)cc1", "melting point": "125 to 127"}, {"smiles": "Nc1cccc(C(=O)N2CCc3ccccc32)c1", "melting point": "125 to 127"}, {"smiles": "O=C1Nc2c(F)ccc(Br)c2C1=O", "melting point": "274 to 276"}, {"smiles": "CCN(CC)S(=O)(=O)c1ccc(N2CCOCC2)c(C(=O)O)c1", "melting point": "149 to 151"}, {"smiles": "N#Cc1ccc(NC(N)=O)cc1", "melting point": "234 to 236"}, {"smiles": "O=C(O)CCCOc1ccc(S(=O)(=O)Cl)cc1F", "melting point": "112 to 114"}, {"smiles": "O=C(O)COc1ccc2oc3ccccc3c2c1", "melting point": "132 to 134"}, {"smiles": "O=C(O)c1cccc(S(=O)(=O)Nc2ccc(I)cc2)c1", "melting point": "260 to 262"}, {"smiles": "COc1ccnc(Cl)n1", "melting point": "57 to 58"}, {"smiles": "O=[N+]([O-])c1ccc(CCl)c(Cl)c1", "melting point": "50 to 52"}, {"smiles": "NC(=O)CC1CC1", "melting point": "125 to 127"}, {"smiles": "CCOC(=O)C(O)c1ncc(Cl)n1C", "note": "(configuration not stated)", "melting point": "85 to 87"}, {"smiles": "c1ccc2sc(C3CCCCN3)nc2c1", "note": "(configuration not stated)", "melting point": "200 to 202"}, {"smiles": "c1ccc(-c2nnn[nH]2)nc1", "melting point": "214 to 216"}, {"smiles": "O=C1c2ccccc2C(=O)N1CC1(CBr)CCCC1", "melting point": "68 to 70"}, {"smiles": "O=C(O)CCc1n[nH]c(S)nc1=O", "melting point": "162 to 164"}, {"smiles": "COc1cc(N)ccc1S(=O)(=O)N1CCCC1", "melting point": "145 to 147"}, {"smiles": "CCCCn1c(=O)[nH]c(=O)c2c1nc(CCl)n2CC", "melting point": "172 to 174"}, {"smiles": "OC1CCCC1N1CCN(c2cccc(Cl)c2)CC1", "note": "(configuration not stated)", "melting point": "99 to 101"}, {"smiles": "CN(C)c1nc(-c2ccccc2)c(C=O)s1", "melting point": "123 to 125"}, {"smiles": "CCc1ccc(OCc2nnc(S)n2C(C)c2ccccc2)cc1", "note": "(configuration not stated)", "melting point": "143 to 145"}, {"smiles": "O=S(=O)(CCCl)c1ccc(Br)cc1", "melting point": "110 to 112"}, {"smiles": "O=C1Nc2c(ccc(Cl)c2F)C1=O", "melting point": "200 to 202"}, {"smiles": "CC(=O)N(c1nc(CCl)cs1)c1ccccc1F", "melting point": "150 to 155"}, {"smiles": "Cn1cc(-c2cccc(CN)c2)cn1", "melting point": "69 to 71"}, {"smiles": "COCCOc1ccc(C(F)(F)F)cc1N", "melting point": "43 to 47"}, {"smiles": "O=C(O)CCNc1ncc(C(F)(F)F)cc1Cl", "melting point": "131 to 133"}, {"smiles": "Cc1ccc(F)c(-c2nc(C(=O)O)no2)c1", "melting point": "107 to 109"}, {"smiles": "CC(C)C(Br)C(=O)NCC1CCCO1", "note": "(configuration not stated)", "melting point": "53 to 55"}, {"smiles": "Nc1c(-c2ccco2)nc2ccccn12", "melting point": "165 to 167"}, {"smiles": "Cc1nc(COc2ccccc2C(=O)O)no1", "melting point": "89 to 91"}, {"smiles": "Cc1ccnc2[nH]c(CCl)nc12", "melting point": "274 to 276"}, {"smiles": "Nc1ccc(F)c(NC(=O)C2CCCCC2)c1", "melting point": "157 to 159"}, {"smiles": "Nc1ncc(Cc2cccc(C(F)(F)F)c2)s1", "melting point": "73 to 77"}, {"smiles": "O=C1NS(=O)(=O)c2ccc(Br)cc21", "melting point": "245 to 247"}, {"smiles": "Nc1ccc(C(=O)NC2CCCC2)cc1", "melting point": "141 to 143"}, {"smiles": "Nc1nnc(-c2ccncc2)[nH]1", "melting point": "271 to 273"}, {"smiles": "CCc1ccc(OCC(=O)O)cc1", "melting point": "93 to 97"}, {"smiles": "COc1ccc(NC(=O)c2ccc(CCl)cc2)cc1", "melting point": "189 to 191"}, {"smiles": "Cn1cnc(-c2ccccc2)c1N", "melting point": "159 to 161"}, {"smiles": "CN(C)S(=O)(=O)c1cccc(C(=O)O)c1", "melting point": "146 to 150"}, {"smiles": "CC(C)NC(=O)C(C)Cl", "note": "(configuration not stated)", "melting point": "89 to 91"}, {"smiles": "Cc1cc(C=O)c(C)n1-c1cccc(F)c1", "melting point": "78 to 80"}]}]}
